Legend:
[1] = tested on: human umbilical vein endothelial cells (HUVEC) and normal human dermal fibroblasts; assay: Measurement of lumen formation (angiogenesis kit, CD31 immunostaining, lumen area); assay type: cell-based
Experimental: The measurement of lumen formation was carried out in the following manner using commercially available angiogenesis kits (Kurabo), each including human umbilical vein endothelial cells (HUVEC) and normal human dermal fibroblasts. First, sample solutions were prepared by dissolving 2-Cl—C.OXT-A in physiological saline so as to achieve predetermined concentrations (1, 10, 100, 500 μmol/l, 1, 5, 10, 50 mmol/l). Then, the sample solutions containing 2-Cl—C.OXT-A at the predetermined concentrations respectively were added to media provided in the kits so that their concentrations became 10 v/v %. Thus, lumen formation media were prepared. The final concentrations of 2-Cl—C.OXT-A in the lumen formation media were 0.1, 1, 10, 50, 100, 500 μmol/l, 1 and 5 mmol/1.
Using each of the lumen formation media, the human umbilical vein endothelial cells (HUVEC) and the normal human dermal fibroblasts were cultured for 10 days. After the culture, the human umbilical vein endothelial cells (HUVEC) were immunostained using a lumen staining kit (for CD31 staining, Kurabo). Then, using NIH Image (image processing and analysis software), the area of a portion stained by the immunostaining (lumen area) was measured. As a control, a medium provided in the kit was used instead of the lumen formation medium to carry out the culture, and the cells were immunostained and the lumen area was measured in the same manner as in the above. Then, using the following equation (II), the relative value of lumen area in the culture using each of the lumen formation media containing 2-Cl—C.OXT-A at the predetermined concentrations was calculated.
In the present example, the relative value of lumen area was calculated in the same manner as in the lumen formation measurement in Example 1, except that the measurement was carried out with respect to four groups respectively using media Nos. 5 to 8 prepared by adding 2-Cl—C.OXT-A and PD98059 to media provided in the above-described angiogenesis kits (Kurabo) so that their concentrations became as shown in Table 2 below. In the group using the medium No. 7, the culture was conducted using the medium No. 7 from the first to third days of the culture and the medium No. 5 from the fourth to tenth days of the culture, and in the group using the medium No. 8, the culture was conducted using the medium No. 8 from the first to third days of the culture and the medium No. 6 from the fourth to tenth days of the culture.
In the present example, the relative value of lumen area was calculated in the same manner as in the lumen formation measurement in Example 1, except that the measurement was carried out with respect to six groups respectively using media Nos. 15 to 20 prepared by adding 2-Cl—C.OXT-A, VEGF (positive control), and SU5416 to media provided in the above-described angiogenesis kit (Kurabo) so that their concentrations became as shown in Table 4 below. In the group using the medium No. 16, the culture was conducted using the medium No. 16 from the first to third days of the culture and the medium No. 15 from the fourth to tenth days of the culture; in the group using the medium No. 18, the culture was conducted using the medium No. 18 from the first to third days of the culture and the medium No. 17 from the fourth to tenth days of the culture; and in the group using the medium No. 20, the culture was conducted using the medium No. 20 from the first to third days of the culture and the medium No. 19 from the fourth to tenth days of the culture.

[2] = tested on: Human umbilical vein endothelial cells (HUVEC); assay: Measurement of cell proliferation (Cell Counting Kit-8); assay type: cell-based; conditions: examined in the same manner as in Example 1
Experimental: Sample solutions were prepared by dissolving 2-Cl—C.OXT-A in physiological saline so as to achieve predetermined concentrations (0.5, 1, 5, 10, 50, 100 mmol/l). Then, the sample solutions containing 2-Cl—C.OXT-A at the predetermined concentrations respectively were added to HuMedia-EB2 media (Kurabo) to which 2 v/v % inactivated fetal bovine serum (FBS) had been added so that their concentrations became 10 v/v %. Thus, cell proliferation media were prepared. The final concentrations of 2-Cl—C.OXT-A in the cell proliferation media were 50, 100, 500 μmol/l, 1, 5, and 10 mmol/1.
Human umbilical vein endothelial cells (HUVEC) suspended in a HuMedia-EG2 medium (Kurabo) were inoculated into each of gelatin-coated wells of a 96-well plate at a density of 3×10^3 cells per well, and cultured for 24 hours. 24 hours after the start of the culture, the medium was removed, and 100 μl of the cell proliferation medium was added to each well. The cells were cultured for another 48 hours. After the completion of the culture, a color reaction was caused using a Cell Counting Kit-8 (Dojindo Laboratories). 2 hours after the start of the reaction, the absorbance at 450 nm was measured using a microplate reader. As a control, a HuMedia-EB2 medium (Kurabo) to which 2 v/v % inactivated fetal bovine serum (FBS) had been added was used instead of the cell proliferation medium to carry out the culture, and a color reaction was caused and the absorbance was measured in the same manner as in the above. Then, using the following equation (I), the relative absorbance in the culture using each of the cell proliferation media containing 2-Cl—C.OXT-A at the predetermined concentrations was calculated.

[3] = tested on: Human umbilical vein endothelial cells (HUVEC); assay: Measurement of cell migration (CytoSelect 24-well Cell Migration Assay); assay type: cell-based; conditions: examined in the same manner as in Example 1
Experimental: Measurement of cell migration was carried out in the following manner using CytoSelect 24-well Cell Migration Assay (CBA-100, Cell Biolabs) kits. First, sample solutions were prepared by dissolving 2-Cl—C.OXT-A in physiological saline so as to achieve predetermined concentrations (0.1, 0.5, 1 mmol/l). Then, the sample solutions containing 2-Cl—C.OXT-A at the predetermined concentrations respectively were added to HuMedia-EB2 media (Kurabo) to which 2 v/v % inactivated fetal bovine serum (FBS) had been added so that their concentrations became 10 v/v %. Thus, cell migration media were prepared. The final concentrations of 2-Cl—C.OXT-A in the cell migration media were 10, 50, and 100 μmol/l.
Human umbilical vein endothelial cells (HUVEC) were suspended in a HuMedia-EB2 medium (Kurabo) to which 2 v/v % inactivated fetal bovine serum (FBS) had been added at a density of 0.5×10^6 cells/ml. Thus, a cell suspension was prepared. 300 μl of the cell suspension was added to an upper compartment (i.e., in an insert) of a polycarbonate membrane plate provided in the kit, and 500 μl of the cell migration medium was added to a lower compartment (i.e., in a well) of the plate. Then, the cells were cultured at 37° C. for 24 hours. After the completion of the culture, the membrane on the inner bottom face of the insert was wiped out with a cotton swab to remove the cells on the membrane. Then, cells having migrated to the rear face of the membrane (the membrane on the outer bottom face of the insert) were stained using a staining solution provided in the kit, and then photographed from below the insert. After the photographing, the dye was extracted with an extracting solution provided in the kit, and the absorbance at 560 nm was measured using a microplate reader. As a control, a HuMedia-EB2 medium (Kurabo) to which 2 v/v % inactivated fetal bovine serum (FBS) had been added was used instead of the cell migration medium to carry out the culture, and the cells were stained and the absorbance was measured in the same manner as in the above. Then, using the above equation (I), the relative absorbance in the culture using each of the cell migration media containing 2-Cl—C.OXT-A at the predetermined concentrations was calculated.

[4] = tested on: ERK; assay: ERK activation (phosphorylation) immunoblot in HUVEC; assay type: cell-based, human
[5] = tested on: rat adrenal medulla-derived cell line PC12; assay: Differentiation of PC12 cells, AChE activity (Ellman's method); assay type: cell-based; conditions: NGF (positive control), sixth day of culture
Experimental: (§1) Three samples were prepared by adding additives shown in Table 5 below to PBS so as to achieve predetermined concentrations. Also, an evaluation medium was prepared by adding each sample or PBS to DMEM (no serum) so that its concentration became 10 v/v %. Furthermore, as a control medium, a medium containing only DMEM (no serum) was prepared. The PC12 cells were suspended at a density of 5×10^4 cells/ml in DMEM to which 5 v/v % cow serum and 10 v/v % horse serum had been added. Thus, a cell suspension was prepared. 3 ml of the cell suspension was inoculated into a 6 petri dish. […] On the sixth day of the culture, the cells were photographed under a microscope, and the AChE activity was measured according to the Ellman's method (Ellman, G. L., et al., Biochem. Pharmacol., 7, pp. 88-95, (1961)). Specifically, the AChE activity was measured in the following manner. […] The sample solution, 75 μl of 10 mmol/l DTNB, and 3.0 ml of 0.1 mol/l phosphate buffer solution (pH 8.0) were added to a […] for absorbance measurement, and finally, 50 μl of 100 mmol/l acetylthiocholine was added to cause a reaction. The absorbance of the reaction solution at 412 nm was measured for 5 minutes from immediately after the addition of the ace tylthiocholine. From the thus-measured absorbances, the amount of increase in absorbance (C) per minute was determined. […]

[6] = tested on: rat adrenal medulla-derived cell line PC12; assay: Differentiation of PC12 cells, morphological change (micrographs); assay type: cell-based; conditions: medium containing NGF (positive control); sixth day of culture
Experimental: In the present example, using rat adrenal medulla-derived cell line PC12, which is neurocyte model cells, obtained from the RIKEN BioResource Center, the effect of 2-Cl—C.OXT-A of Example 1 on the differentiation of PC12 cells was examined.
as §1, with “prepared.” for “prepared. The PC12 cells were suspended at a density of 5×10^4 cells/ml in DMEM to which 5 v/v % cow serum and 10 v/v % horse serum had been added. Thus, a cell suspension was prepared. 3 ml of the cell suspension was inoculated into a 6 petri dish.”

CSc1nc(N)c2ncn(C3CC(CO)C3CO)c2n1 (stereo not drawn) [2-SMe—C.OXT-A, 6-amino-2-thiomethoxy-9-[trans-trans-2,3-bis (hydroxymethyl)cyclobutyl]purine]
lumen formation promoting-activity for vascular endothelial cells ([1]; examined in the same manner as in Example 1): exhibited | cell proliferation promoting-activity for vascular endothelial cells [2]: exhibited | melting point: 209.4 to 211 °C | cell migration promoting-activity for vascular endothelial cells [3]: exhibited

Cc1cc(C)c(/C=C2\C(=O)Nc3ccccc32)[nH]1 [SU5416, reference compound]
lumen formation ([1]; Example 9, medium No. 16: only SU5416 2.5 μmol/l, versus medium No. 15 (control)): decreased | lumen formation promotion by 2-Cl—C.OXT-A in the presence of SU5416 ([1]; Example 9, medium No. 18: 2-Cl—C.OXT-A 10 μmol/l + SU5416 2.5 μmol/l, lumen area increased, rate lower than medium No. 17): not inhibited | lumen area ([1]; Example 9, medium No. 20: VEGF 10 ng/ml + SU5416 2.5 μmol/l): decreased | increase in pERK ([4]; Example 8, medium No. 10: only SU5416 100 nmol/l): not observed | ERK activation by 2-Cl—C.OXT-A in the presence of SU5416 ([4]; Example 8, medium No. 12: 2-Cl—C.OXT-A 100 μmol/l + SU5416 100 nmol/l): not inhibited | increase in pERK by VEGF in the presence of SU5416 ([4]; Example 8, medium No. 14: VEGF 10 ng/ml + SU5416 100 nmol/l): suppressed

NGF: nerve growth factor, positive control
AChE enzyme activity (relative value) [5]: increased | morphological change of PC12 cells (axon extension) [6]: cells from which linear axons extend were observed

VEGF
lumen area ([1]; Example 9, medium No. 19: VEGF 10 ng/ml): increased | pERK ([4]; Example 8, medium No. 13: VEGF 10 ng/ml): increased

Source: patent US20110230659A1, “CYCLOBUTYL PURINE DERIVATIVE, ANGIOGENESIS PROMOTING AGENT, LUMEN FORMATION PROMOTING AGENT, NEUROCYTE GROWTH PROMOTING AGENT, AND DRUG” (NATIONAL UNIVERSITY CORPORATION KAGAWA UNIVERSITY, priority 2008, published 2011)
